Experimental data published in patent US20030157162A1, “Liposome-encapsulated opioid analgesics” (priority 2002, published 2003).
Where a name gives a salt, the structure may show the parent alone.

Tests used:
[1] = In vivo pharmacokinetics in dogs (ELISA, NONMEM model, trapezoidal AUC); parameters: species or system dog
Text: Twenty-five adult beagles (n=14; 12 female, 2 male) and hounds (n=11; 9 female, 2 male) that were 1 to 5 years old (median age 1.5 years) and weighed between 6.9 kg and 35.7 kg (median weight=9.46 kg) were used. Normal health status and organ function were confirmed by physical exam and a complete blood count and serum chemistry profile prior to inclusion in the study. None of the animals received any medications in the 2 weeks prior to study. Animals were housed individually (hounds) or in groups of 2 to 4 (beagles), and were fed a commercial diet and water ad libitum throughout the study.
(§1) Two doses of liposome-encapsulated oxymorphone and two equipotent doses of standard pharmaceutical oxymorphone were investigated. One dose of the liposomal vehicle was also investigated to confirm the absence of pharmacodynamic properties of the vehicle. Each dog received only 1 treatment and was then removed from further study. Treatment groups were as follows: Group 1 (n=6) liposome-encapsulated oxymorphone (1.0 mg/kg); Group 2 (n=5) liposome-encapsulated oxymorphone (0.5 mg/kg); Group 3 (n=6) standard pharmaceutical oxymorphone (NUMORPHAN®, Endo Pharmaceuticals Inc., Chadds Ford, Pa.) (0.1 mg/kg); Group 4 (n=6) standard pharmaceutical oxymorphone (0.05 mg/kg); Group 5 (n=2) liposomal vehicle (0.7 ml). Liposome-encapsulated oxymorphone or vehicle were drawn from a stock solution on ice via an 18 gauge needle attached to a 1- or 3-ml syringe and administered subcutaneously slowly via a 23 gauge needle. All injections were made in a shaved area of the thigh such that potential skin reactions to the liposomal preparations could be assessed.
A 1 ml blood sample was collected percutaneously from the left and right cephalic or saphenous veins, in rotating order. In groups 1 and 2 (liposome-encapsulated oxymorphone groups), blood was collected before and 0.5, 1, 2, 4, 8, 12, 16, and 24 hours after drug administration, and daily for 5 days at the same time of day as treatment administration had occurred. In groups 3, 4, and 5 (standard oxymorphone and liposomal vehicle groups), blood was collected before and 0.5, 1, 2, 4, 8, 12, and 24 hours after drug administration. Blood samples were transferred to centrifuge tubes and held on ice for a maximum of 4 hours, then centrifuged at 5° C. for 10 minutes at 5000×g. Serum was stored at −70° C. until analysis.
Oxymorphone concentrations in serum were quantitated using a commercial ELISA (Neogen Inc, Lexington, Ky.).
Plasma oxymorphone concentrations were used in pharmacokinetic model building using a non-linear, mixed effect computer program (NONMEM User's Guides, (1989-98) Beal and Sheiner (Eds.) GloboMax, LLC, Hanover, Md.). The data from all animals were evaluated concurrently. The assumption was made that the subcutaneous injection of the standard and liposomal oxymorphone delivered drug to an extravascular compartment from which unidirectional absorption into the blood occurred. In the case of the liposomal preparation, an additional, unidirectional rate constant of flux from the liposome to the surrounding subcutaneous compartment was assumed.
This was tested in the pharmacokinetic model construction with allowance for a variable (fitted) fraction of the liposomal dose administered directly to the subcutaneous space in the aqueous carrier.
The NONMEM model included an intersubject variability for the parameters of distribution volume, fraction of drug delivered to of the liposome, and drug flux into and out of the plasma. The first-order rate of drug loss from the liposome was assumed to be a physiochemical constant, and was not allowed to vary between animals. Animal weight and sex were tested as continuous and categorical covariates affecting volume and clearance. Pharmacokinetic models that included a tissue distribution compartment were over-parameterized and were discarded. […]

dogs = assay: Sedation score, heart rate, respiratory rate, temperature and skin reaction in dogs; type: in vivo, dog
Procedure: as §1
A sedation score was recorded on each dog prior to drug administration and at the same times as venous blood collection. The sedation score included recording of heart rate by auscultation, respiratory rate by observation of movement of the thoracic wall, and rectal temperature via a digital rectal thermometer. The same person assessed sedation scores throughout the study. Changes in sedation score, heart rate, respiratory rate, and temperature were analyzed using repeated measures ANOVA, with p<0.05 considered significant.

In the case of `CN1CC[C@]23c4c5ccc(O)c4O[C@H]2C(=O)CC[C@@]3(O)[C@H]1C5` [standard oxymorphone, oxymorphone hydrochloride], the “AUC (dose-normalised, median)” value ([1]; 0.05 mg/kg) is reported as 128.0 (ng-hr/L)/mg/kg), the “K23 (from subcutaneous tissue to systemic tissue)” value ([1]; 0.05 mg/kg) is reported as 0.400 h⁻¹ and the “K30 (from systemic tissue to excretion from body)” value ([1]; 0.05 mg/kg) is reported as 5.40 h⁻¹. For the same molecule, the V ([1]; 0.05 mg/kg) was 2.03 L, the “AUC (dose-normalised, median)” value ([1]; 0.1 mg/kg) was 135.9 (ng-hr/L)/mg/kg) and the “K23 (from subcutaneous tissue to systemic tissue)” value ([1]; 0.1 mg/kg) was 0.348 h⁻¹. The “K30 (from systemic tissue to excretion from body)” value ([1]; 0.1 mg/kg) was 7.19 h⁻¹, the V ([1]; 0.1 mg/kg) was 1.50 L and the “time of peak sedation score” value (dogs; 0.05 and 0.1 mg/kg) was 30 min. For the same molecule, the “respiratory rate and rectal temperature compared to baseline” value (dogs; either dose) was “moderate and statistically insignificant decrease”, the “local skin reactions at the site of injection” value (dogs; s.c.) was “no local skin reactions” and the “heart rate from baseline to 2 hours after drug administration” value (dogs; within clinically normal range) was “significant decrease”.
